Results reported in the supplement of paper PMC10307832.

Assays:
Assay in all cases: relative viability (nuclei count vs DMSO), 5 days (fraction); higher = more cells survive
Sulindac + OSI-027 = compound: CC1=C(CC(=O)O)c2cc(F)ccc2/C1=C\c1ccc([S+](C)[O-])cc1 [Sulindac] + COc1cccc2cc(-c3nc([C@H]4CC[C@H](C(=O)O)CC4)n4ncnc(N)c34)[nH]c12 [OSI-027] (partner 0.5 µM)
Method in brief: (§1)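 Relative viability is defined as nuclei in treated wells over nuclei in vehicle wells. Duplicate plates were run and medians reported. Lung cancer cell lines in 1536-well plates were dosed by pin tool one day after seeding, with one drug or with a fixed anchor-drug dose plus five library-drug doses (not always all listed) in √10 steps, and nuclei were counted after 5 days.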

Sulindac + Decitabine = compound: CC1=C(CC(=O)O)c2cc(F)ccc2/C1=C\c1ccc([S+](C)[O-])cc1 [Sulindac] + Nc1ncn([C@H]2C[C@H](O)[C@@H](CO)O2)c(=O)n1 [Decitabine] (partner 2 µM)
Method in brief: as §1

[1] = compound: CN[C@@H]1C[C@H]2O[C@@](C)([C@@H]1OC)n1c3ccccc3c3c4c(c5c6ccccc6n2c5c31)C(=O)NC4 [Staurosporine] + CC1(C)CCC(c2ccc(Cl)cc2)=C(CN2CCN(c3ccc(C(=O)NS(=O)(=O)c4ccc(N[C@H](CCN5CCOCC5)CSc5ccccc5)c(S(=O)(=O)C(F)(F)F)c4)cc3)CC2)C1 [Navitoclax] (partner 0.5 µM)
Method in brief: as §1

Staurosporine + AZD7762 = compound: CN[C@@H]1C[C@H]2O[C@@](C)([C@@H]1OC)n1c3ccccc3c3c4c(c5c6ccccc6n2c5c31)C(=O)NC4 [Staurosporine] + NC(=O)Nc1cc(-c2cccc(F)c2)sc1C(=O)N[C@H]1CCCNC1 [AZD7762] (partner 0.2 µM)
Method in brief: as §1

| Cell Line | relative viability (Sulindac + OSI-027; first compound 0.08 µM) | relative viability (Sulindac + OSI-027; first compound 0.253 µM) | relative viability (Sulindac + OSI-027; first compound 0.8 µM) | relative viability (Sulindac + OSI-027; first compound 2.53 µM) | relative viability (Sulindac + OSI-027; first compound 8 µM) | relative viability (Sulindac + Decitabine; first compound 0.08 µM) | relative viability (Sulindac + Decitabine; first compound 0.253 µM) | relative viability (Sulindac + Decitabine; first compound 0.8 µM) | relative viability (Sulindac + Decitabine; first compound 2.53 µM) | relative viability (Sulindac + Decitabine; first compound 8 µM) | relative viability ([1]; first compound 0.005 µM) | relative viability ([1]; first compound 0.01581 µM) | relative viability ([1]; first compound 0.05 µM) | relative viability ([1]; first compound 0.1581 µM) | relative viability ([1]; first compound 0.5 µM) | relative viability (Staurosporine + AZD7762; first compound 0.005 µM) | relative viability (Staurosporine + AZD7762; first compound 0.01581 µM) | relative viability (Staurosporine + AZD7762; first compound 0.05 µM) | relative viability (Staurosporine + AZD7762; first compound 0.1581 µM) | relative viability (Staurosporine + AZD7762; first compound 0.5 µM) |
| --- | --- | --- | --- | --- | --- | --- | --- | --- | --- | --- | --- | --- | --- | --- | --- | --- | --- | --- | --- | --- |
| LOU-NH91 | 0.681 | 0.714 | 0.808 | 0.705 | 0.73 | 0.776 | 0.8 | 0.715 | 0.798 | 0.873 | 0.725 | 0.455 | 0.367 | 0.269 | 0.249 | 0.555 | 0.341 | 0.395 | 0.254 | 0.247 |
| NCI-H2347 | 0.398 | 0.363 | – | 0.301 | 0.511 | 0.609 | 0.632 | 0.548 | 0.652 | 0.636 | 0.854 | 0.524 | 0.274 | 0.284 | 0.225 | 0.459 | 0.264 | 0.374 | – | 0.224 |
| HCC-827 | 0.913 | 0.777 | 0.573 | 0.798 | 0.761 | 0.342 | 0.31 | 0.328 | 0.332 | 0.291 | 1.06 | – | 0.768 | 0.725 | 0.488 | 0.204 | 0.179 | 0.153 | 0.143 | 0.115 |
| NCI-H727 | 0.561 | 0.538 | – | 0.537 | 1 | 0.965 | 1.02 | 0.874 | 0.866 | 0.957 | 0.285 | 0.251 | 0.265 | 0.193 | 0.18 | 0.622 | 0.412 | 0.55 | 0.466 | 0.461 |
| PC-3 [JPC-3] | 0.715 | 0.797 | 0.614 | 0.752 | 0.728 | 0.777 | 0.791 | 0.838 | 0.77 | 0.855 | 0.933 | – | 0.552 | 0.485 | 0.406 | 0.829 | 0.472 | 0.357 | 0.327 | 0.332 |
| NCI-H23 | 0.678 | – | 0.602 | 0.583 | 0.72 | 0.298 | 0.331 | 0.319 | 0.324 | 0.319 | 0.764 | 0.412 | 0.257 | 0.2 | 0.12 | 0.223 | 0.126 | 0.164 | 0.12 | 0.0804 |
| NCI-H838 | 0.382 | 0.424 | 0.367 | 0.358 | 0.388 | 0.497 | 0.476 | 0.425 | 0.45 | 0.507 | 0.307 | 0.22 | 0.203 | 0.161 | 0.113 | 0.776 | 0.644 | 0.643 | 0.693 | 0.675 |
| HCC-366 | 1.33 | 1.11 | 0.947 | 0.836 | 0.964 | 0.388 | 0.317 | – | 0.334 | 0.412 | 1.03 | – | 0.5 | 0.0585 | 0.0142 | 0.255 | – | 0.165 | 0.0217 | 0.0248 |
| NCI-H1666 | 0.857 | 0.882 | 0.753 | 0.826 | 0.915 | 0.679 | 0.73 | 0.668 | 0.696 | 0.713 | 0.722 | 0.554 | 0.395 | 0.324 | 0.202 | 0.701 | 0.51 | 0.524 | 0.404 | 0.32 |
| HCC-44 | 0.463 | 0.592 | – | 0.519 | 0.734 | 0.976 | 0.909 | 0.871 | 0.918 | 0.961 | 0.867 | 0.28 | 0.215 | 0.185 | 0.13 | 0.999 | – | 0.911 | 0.565 | 0.307 |
| A-427 | 0.495 | 0.474 | 0.443 | 0.459 | 0.584 | 0.469 | 0.521 | 0.552 | 0.52 | 0.6 | 0.943 | 0.639 | 0.254 | 0.204 | – | 0.545 | 0.305 | 0.246 | 0.169 | 0.142 |
| NCI-H460 | 1.5 | 0.811 | 0.566 | 0.688 | 0.77 | 0.745 | 0.536 | 0.438 | 0.435 | 0.601 | 0.949 | 0.87 | 0.232 | 0.0102 | 0.0078 | 0.656 | 0.532 | 0.741 | 0.0465 | 0.0251 |
| NCI-H441 | 0.627 | 0.597 | 0.416 | 0.679 | 0.759 | 0.255 | 0.232 | 0.252 | 0.245 | 0.264 | 0.521 | 0.333 | 0.325 | 0.16 | 0.17 | 0.86 | 0.538 | 0.315 | 0.293 | 0.165 |
| LK-2 | 0.186 | 0.209 | 0.201 | 0.17 | 0.21 | 0.334 | 0.361 | 0.277 | 0.239 | 0.306 | 0.965 | 0.54 | 0.456 | 0.109 | 0.0967 | 0.571 | 0.448 | 0.394 | 0.0558 | 0.0592 |
| NCI-H2085 | 0.8 | 0.822 | 0.674 | 0.831 | 0.755 | 0.497 | 0.556 | 0.545 | 0.525 | 0.5 | 0.757 | 0.583 | 0.541 | 0.415 | 0.366 | 0.751 | 0.42 | 0.47 | 0.245 | 0.276 |
| NCI-H1793 | 0.218 | 0.359 | 0.236 | 0.243 | 0.258 | 0.406 | 0.521 | – | 0.486 | 0.588 | 0.573 | 0.238 | 0.326 | 0.23 | 0.264 | 0.352 | – | 0.143 | 0.186 | 0.145 |
| NCI-H3122 | 1.07 | 1.02 | 0.864 | 0.937 | 1.13 | 0.409 | 0.385 | 0.352 | 0.435 | 0.439 | 1.04 | 0.46 | 0.993 | 0.672 | 0.223 | – | – | 0.678 | – | 0.192 |
